Holding throughout (format): biochemical
In one test the target is T1, JAK3 (Homo sapiens, UniProt P52333).
T1 sequence (P52333 1-1124): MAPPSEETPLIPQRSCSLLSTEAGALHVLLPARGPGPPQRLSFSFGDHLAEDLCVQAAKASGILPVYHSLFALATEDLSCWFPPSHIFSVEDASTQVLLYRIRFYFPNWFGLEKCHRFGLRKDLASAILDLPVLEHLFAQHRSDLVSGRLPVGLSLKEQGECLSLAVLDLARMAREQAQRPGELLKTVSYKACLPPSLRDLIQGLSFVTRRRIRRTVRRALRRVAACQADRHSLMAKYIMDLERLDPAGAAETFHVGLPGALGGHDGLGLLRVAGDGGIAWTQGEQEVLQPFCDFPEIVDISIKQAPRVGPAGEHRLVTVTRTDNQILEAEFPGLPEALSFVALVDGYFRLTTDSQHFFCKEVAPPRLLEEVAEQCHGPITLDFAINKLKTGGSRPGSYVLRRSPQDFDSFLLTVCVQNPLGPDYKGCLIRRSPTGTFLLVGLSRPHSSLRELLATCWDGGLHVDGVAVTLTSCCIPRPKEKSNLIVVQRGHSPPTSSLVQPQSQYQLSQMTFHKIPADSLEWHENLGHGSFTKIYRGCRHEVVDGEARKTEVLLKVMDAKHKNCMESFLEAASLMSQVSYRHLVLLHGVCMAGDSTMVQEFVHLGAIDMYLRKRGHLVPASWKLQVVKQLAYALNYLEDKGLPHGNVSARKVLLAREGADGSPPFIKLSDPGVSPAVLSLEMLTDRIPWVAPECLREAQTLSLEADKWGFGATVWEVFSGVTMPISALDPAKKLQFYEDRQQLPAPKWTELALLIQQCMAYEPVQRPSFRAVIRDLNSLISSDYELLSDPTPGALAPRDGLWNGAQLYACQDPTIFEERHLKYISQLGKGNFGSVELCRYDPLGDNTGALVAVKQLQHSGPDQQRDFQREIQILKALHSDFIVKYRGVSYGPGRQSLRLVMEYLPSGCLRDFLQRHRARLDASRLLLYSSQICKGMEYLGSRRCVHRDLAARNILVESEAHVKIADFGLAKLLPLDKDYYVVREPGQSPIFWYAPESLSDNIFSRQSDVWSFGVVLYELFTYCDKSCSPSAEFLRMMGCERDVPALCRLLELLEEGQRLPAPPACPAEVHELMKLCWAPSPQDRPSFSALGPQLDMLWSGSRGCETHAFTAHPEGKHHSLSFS
In words: JAK3 inhibition assay (33P incorporation into poly(Glu)4Tyr). The essentials:
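After TCA quench and filter harvest, scintillation counting of 33P measured phosphorylation of poly(Glu)4Tyr (1 μM) by 1 nM JAK3. The 20-min, 25° C. reaction contained 5 μM ATP (200 μCi/μmole) in pH 7.4 HEPES buffer with 10 mM MgCl2.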

The target of the next test is JAK2 (Homo sapiens, UniProt O60674). In words: JAK2 inhibition assay (as Example 3 with JAK-2 enzyme). In a few lines:
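In HEPES pH 7.4 buffer with 10 mM MgCl2, 1 mM DTT, 25 mM NaCl and 0.01% BSA, JAK2 enzyme phosphorylated poly(Glu)4Tyr (final 15 μM) using 33P-ATP (final 12 μM) for 20 min at room temperature (25 °C). Reactions stopped with TCA; incorporated 33P measured by scintillation after filtration.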

For the next test, the target named is ROCK I (Homo sapiens, UniProt Q13464). In words: ROCK-I inhibition assay (radioactive enzyme assay, MBP substrate). The essentials: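 Human ROCK at 5 nM phosphorylated 27 μM myelin basic protein with 13 μM [γ-33P]ATP (final) in HEPES pH 7.5, MgCl2, NaCl, DTT and 1.5% DMSO. Reactions ran 2 h at room temperature before TCA quench and filter-plate scintillation counting. After background subtraction, data were fit to give Ki(app).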
Chain of ROCK I (Q13464 whole entry): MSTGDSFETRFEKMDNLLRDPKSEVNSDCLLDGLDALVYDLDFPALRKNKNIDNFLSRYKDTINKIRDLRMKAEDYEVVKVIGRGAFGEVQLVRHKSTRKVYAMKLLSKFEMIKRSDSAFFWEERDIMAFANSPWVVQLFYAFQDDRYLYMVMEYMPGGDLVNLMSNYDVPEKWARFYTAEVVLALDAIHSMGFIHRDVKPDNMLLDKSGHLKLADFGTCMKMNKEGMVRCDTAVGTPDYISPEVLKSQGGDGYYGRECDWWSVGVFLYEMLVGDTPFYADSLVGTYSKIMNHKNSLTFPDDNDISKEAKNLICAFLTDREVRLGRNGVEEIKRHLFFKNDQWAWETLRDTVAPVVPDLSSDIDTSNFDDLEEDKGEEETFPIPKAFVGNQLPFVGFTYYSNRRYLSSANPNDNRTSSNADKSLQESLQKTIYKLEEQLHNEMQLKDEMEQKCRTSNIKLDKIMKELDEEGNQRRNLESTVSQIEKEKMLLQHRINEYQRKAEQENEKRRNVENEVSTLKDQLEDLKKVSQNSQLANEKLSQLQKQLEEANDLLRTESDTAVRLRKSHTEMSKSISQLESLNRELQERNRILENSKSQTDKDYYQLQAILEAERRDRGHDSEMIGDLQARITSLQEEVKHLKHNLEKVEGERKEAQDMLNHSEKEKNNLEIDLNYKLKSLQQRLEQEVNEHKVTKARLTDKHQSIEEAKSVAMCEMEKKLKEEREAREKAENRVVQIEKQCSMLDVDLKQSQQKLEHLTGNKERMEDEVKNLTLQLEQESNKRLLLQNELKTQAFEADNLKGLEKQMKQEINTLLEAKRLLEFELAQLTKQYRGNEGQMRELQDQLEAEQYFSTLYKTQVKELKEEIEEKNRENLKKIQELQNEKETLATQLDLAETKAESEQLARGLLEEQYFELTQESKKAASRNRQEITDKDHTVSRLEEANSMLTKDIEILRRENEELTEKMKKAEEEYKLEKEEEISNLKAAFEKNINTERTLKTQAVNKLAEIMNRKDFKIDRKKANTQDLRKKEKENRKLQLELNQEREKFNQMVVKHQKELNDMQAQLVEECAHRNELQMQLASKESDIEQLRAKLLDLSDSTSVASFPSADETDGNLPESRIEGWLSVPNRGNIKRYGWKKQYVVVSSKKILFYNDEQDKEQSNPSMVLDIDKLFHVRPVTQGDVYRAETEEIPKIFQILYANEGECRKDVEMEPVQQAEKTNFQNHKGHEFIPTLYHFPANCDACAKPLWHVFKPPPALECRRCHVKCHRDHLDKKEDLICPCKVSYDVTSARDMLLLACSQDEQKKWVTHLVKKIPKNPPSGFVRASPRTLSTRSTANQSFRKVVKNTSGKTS

Where [1] appears, read: enzyme inhibition, Ki(app), Table 5.
[2] abbreviates: Table 6, enzyme inhibition data (Ki).

The structures appear in SMILES notation. pKi: −log10 of the molar value.

Chain of JAK2 (O60674 whole entry): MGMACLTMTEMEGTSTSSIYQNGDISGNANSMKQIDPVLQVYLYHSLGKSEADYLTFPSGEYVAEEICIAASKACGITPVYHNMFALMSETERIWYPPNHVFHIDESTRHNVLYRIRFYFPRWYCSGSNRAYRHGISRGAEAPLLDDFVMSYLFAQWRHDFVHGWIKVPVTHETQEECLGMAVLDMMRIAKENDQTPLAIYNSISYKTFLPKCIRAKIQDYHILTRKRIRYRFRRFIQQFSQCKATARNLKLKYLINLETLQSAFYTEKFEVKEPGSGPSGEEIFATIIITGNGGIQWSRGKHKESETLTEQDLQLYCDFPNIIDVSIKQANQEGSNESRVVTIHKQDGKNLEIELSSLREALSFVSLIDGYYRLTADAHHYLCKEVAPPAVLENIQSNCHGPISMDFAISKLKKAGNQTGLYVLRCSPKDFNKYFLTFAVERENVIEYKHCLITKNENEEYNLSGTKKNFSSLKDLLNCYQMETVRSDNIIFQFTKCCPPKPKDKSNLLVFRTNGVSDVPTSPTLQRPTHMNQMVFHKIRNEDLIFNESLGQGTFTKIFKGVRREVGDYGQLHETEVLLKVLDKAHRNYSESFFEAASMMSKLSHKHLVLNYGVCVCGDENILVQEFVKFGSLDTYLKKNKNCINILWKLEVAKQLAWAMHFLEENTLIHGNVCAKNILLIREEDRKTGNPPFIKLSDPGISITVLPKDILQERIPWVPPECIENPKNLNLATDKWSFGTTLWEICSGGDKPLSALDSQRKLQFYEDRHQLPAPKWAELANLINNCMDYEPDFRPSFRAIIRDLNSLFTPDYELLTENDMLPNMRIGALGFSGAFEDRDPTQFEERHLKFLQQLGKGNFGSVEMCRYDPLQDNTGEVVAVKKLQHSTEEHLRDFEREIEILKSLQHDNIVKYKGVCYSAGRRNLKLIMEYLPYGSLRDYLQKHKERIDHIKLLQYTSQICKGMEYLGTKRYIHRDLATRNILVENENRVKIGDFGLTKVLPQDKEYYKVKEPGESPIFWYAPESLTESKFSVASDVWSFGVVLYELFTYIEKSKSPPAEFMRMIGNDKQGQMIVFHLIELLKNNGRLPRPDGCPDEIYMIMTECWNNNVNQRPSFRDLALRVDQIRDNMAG

As for `CC(C)(C(=O)CC#N)c1cccc(-c2ccnc3[nH]ccc23)n1` [compound 125, 4-(6-(1H-pyrrolo[2,3-b]pyridin-4-yl)pyridin-2-yl)-4-methyl-3-oxopentanitrile], the pKi on JAK3 (enzyme inhibition, Table 5) was over 6.30; on JAK2 (enzyme inhibition, Table 5) it was over 6.30; at ROCK I (setting [1]) it was over 6.30.

`Clc1cnc2[nH]ccc2c1NC1CCCCC1` [compound 126, 5-chloro-N-cyclohexyl-1H-pyrrolo[2,3-b]pyridin-4-amine]: the pKi at JAK3 (enzyme inhibition, Table 5) was over 6.30; at JAK2 (enzyme inhibition, Table 5) it was over 6.30; at ROCK I (setting [1]), over 6.30.

In the case of `Clc1cnc2[nH]ccc2c1NC1CCCC1` [compound 127, 5-chloro-N-cyclopentyl-1H-pyrrolo[2,3-b]pyridin-4-amine], the pKi at JAK3 (enzyme inhibition, Table 5) was over 6.30; on JAK2 (enzyme inhibition, Table 5), over 6.30; at ROCK I (setting [1]), over 6.30.

As for `CC(=O)Nc1ccccc1-c1c(Cl)cnc2[nH]ccc12` [compound 128], the pKi at JAK3 (enzyme inhibition, Table 5) is under 5.30; at JAK2 (enzyme inhibition, Table 5) it was under 5.30; at ROCK I (setting [1]) it was 5.30 to 6.30.

For the compound `Nc1ccccc1-c1c(Cl)cnc2[nH]ccc12` [compound 129], the pKi was under 5.30 on JAK3 (enzyme inhibition, Table 5); under 5.30 at JAK2 (enzyme inhibition, Table 5); 5.30 to 6.30 on ROCK I (setting [1]).

Regarding `C[C@H](Nc1ccnc(-c2ccnc3[nH]ccc23)n1)C(=O)NC1CC1` [compound 130], the pKi at JAK3 (enzyme inhibition, Table 5) was 5.30 to 6.30; at JAK2 (enzyme inhibition, Table 5), 5.30 to 6.30; on ROCK I (setting [1]), 5.30 to 6.30.

Turning to `CC(C)(Nc1nc(-c2ccnc3[nH]ccc23)ncc1F)C(=O)NCC(F)(F)F` [compound 131], the pKi on JAK3 (enzyme inhibition, Table 5) is over 6.30; at JAK2 (enzyme inhibition, Table 5), 5.30 to 6.30; on ROCK I (setting [1]) it was 5.30 to 6.30.

For `CC(C)(Nc1nc(-c2ccnc3[nH]ccc23)nc2ccccc12)C(=O)NCC(F)(F)F` [compound 132], the pKi at JAK3 (enzyme inhibition, Table 5) is 5.30 to 6.30; on JAK2 (enzyme inhibition, Table 5), under 5.30; on ROCK I (setting [1]), 5.30 to 6.30.

For the compound `c1cc(-c2ccoc2)c2cc[nH]c2n1` [compound 133, 4-Furan-3-yl-1H-pyrrolo[2,3-b]pyridine], the pKi at JAK3 (enzyme inhibition, Table 5) is 5.30 to 6.30; at JAK2 (enzyme inhibition, Table 5), over 6.30; on ROCK I (setting [1]), over 6.30.

As to `C[C@H](Nc1nc(-c2ccnc3[nH]ccc23)nc2ccccc12)C(=O)NCC(F)(F)F` [compound 134], the pKi on JAK3 (enzyme inhibition, Table 5) is 5.30 to 6.30; at JAK2 (enzyme inhibition, Table 5), under 5.30; at ROCK I (setting [1]) it was 5.30 to 6.30.

In the case of `Clc1cnc2[nH]ccc2c1-c1cccs1` [compound 135], the pKi at JAK3 (setting [2]), on JAK2 (setting [2]) and on ROCK I (setting [2]) was over 6.30 in each case.

As for `Clc1cnc2[nH]ccc2c1-c1ccco1` [compound 136], the pKi at JAK3 (setting [2]), on JAK2 (setting [2]) and at ROCK I (setting [2]) was over 6.30 throughout.

Consider `Clc1cnc2[nH]ccc2c1-c1cc2ccccc2s1` [compound 137], for which the pKi at JAK3 (setting [2]) is over 6.30; at JAK2 (setting [2]), over 6.30; on ROCK I (setting [2]), under 5.40.

As to `Clc1cnc2[nH]ccc2c1-c1cc2ccccc2o1` [compound 138], the pKi is over 6.30 on JAK3 (setting [2]), over 6.30 on JAK2 (setting [2]) and under 5.40 on ROCK I (setting [2]).

With `Clc1cnc2[nH]ccc2c1-c1ccoc1` [compound 139], the pKi is over 6.30 at JAK3 (setting [2]), over 6.30 on JAK2 (setting [2]) and 5.30 to 6.30 at ROCK I (setting [2]).

As to `Cc1ccc(-c2c(Cl)cnc3[nH]ccc23)s1` [compound 140], the pKi on JAK3 (setting [2]) is over 6.30; on JAK2 (setting [2]), over 6.30; on ROCK I (setting [2]), 5.30 to 6.30.

`Clc1ccc(-c2c(Cl)cnc3[nH]ccc23)s1` [compound 141]: the values for the pKi on JAK3 (setting [2]), at JAK2 (setting [2]) and at ROCK I (setting [2]) were over 6.30, over 6.30 and under 5.40, respectively.

`Clc1cnc2[nH]ccc2c1-c1csc2ccccc12` [compound 142]: the pKi on JAK3 (setting [2]) was over 6.30; at JAK2 (setting [2]) it was over 6.30; at ROCK I (setting [2]) it was 5.30 to 6.30.

On to `CC(C)(C)OC(=O)n1cccc1-c1c(Cl)cnc2[nH]ccc12` [compound 143], for which the pKi on JAK3 (setting [2]) is under 5.30; on JAK2 (setting [2]), 5.30 to 6.30; at ROCK I (setting [2]) it was under 5.40.

In the case of `Cc1csc(-c2c(Cl)cnc3[nH]ccc23)c1` [compound 144], the pKi on JAK3 (setting [2]) was over 6.30; at JAK2 (setting [2]), over 6.30; on ROCK I (setting [2]) it was 5.30 to 6.30.

Regarding `CC(=O)c1ccc(-c2c(Cl)cnc3[nH]ccc23)s1` [compound 145], the pKi was over 6.30 at JAK3 (setting [2]), over 6.30 on JAK2 (setting [2]) and under 5.40 on ROCK I (setting [2]).

As to `Cc1noc(C)c1-c1c(Cl)cnc2[nH]ccc12` [compound 146], the figures for the pKi on JAK3 (setting [2]), at JAK2 (setting [2]) and at ROCK I (setting [2]) were under 5.30, under 5.30 and under 5.40, respectively.

`CC(C)(C)OC(=O)n1c(-c2c(Cl)cnc3[nH]ccc23)cc2ccccc21` [compound 147]: the pKi at JAK3 (setting [2]) is under 5.30; at JAK2 (setting [2]), under 5.30; on ROCK I (setting [2]), under 5.40.

Consider `O=S(=O)(c1ccccc1)n1cc(-c2c(Cl)cnc3[nH]ccc23)c2ccccc21` [compound 148], for which the pKi is 5.30 to 6.30 on JAK3 (setting [2]), 5.30 to 6.30 on JAK2 (setting [2]) and under 5.40 on ROCK I (setting [2]).

For `Clc1cnc2[nH]ccc2c1NC1CCCCCC1` [compound 149], the pKi at JAK3 (setting [2]), at JAK2 (setting [2]) and on ROCK I (setting [2]) was over 6.30 throughout.

On to `Clc1cnc2[nH]ccc2c1N[C@@H]1C[C@H]2CC[C@@H]1C2` [compound 150], for which the pKi on JAK3 (setting [2]), at JAK2 (setting [2]) and on ROCK I (setting [2]) was over 6.30 in each case.

As for `CC(C)[C@@H]1CC[C@@H](C)C[C@H]1Nc1c(Cl)cnc2[nH]ccc12` [compound 151], the results for the pKi at JAK3 (setting [2]), on JAK2 (setting [2]) and on ROCK I (setting [2]) were 5.30 to 6.30, 5.30 to 6.30 and under 5.40, respectively.

As for `Clc1cnc2[nH]ccc2c1N[C@@H]1CCC[C@H]1OCc1ccccc1` [compound 152], the pKi on JAK3 (setting [2]), on JAK2 (setting [2]) and on ROCK I (setting [2]) was over 6.30 each time.

For the compound `CC1CCCCC1Nc1c(Cl)cnc2[nH]ccc12` (stereo not drawn) [compound 153], the values for the pKi at JAK3 (setting [2]), at JAK2 (setting [2]) and on ROCK I (setting [2]) were over 6.30, over 6.30 and 5.30 to 6.30, respectively.

With `COc1ccc(OC)c(Nc2c(Cl)cnc3[nH]ccc23)c1` [compound 154], the pKi is over 6.30 at JAK3 (setting [2]), over 6.30 at JAK2 (setting [2]) and under 5.40 at ROCK I (setting [2]).

As for `CCC(=O)Nc1cccc(Nc2c(Cl)cnc3[nH]ccc23)c1` [compound 155], the pKi on JAK3 (setting [2]) was over 6.30; on JAK2 (setting [2]) it was over 6.30; on ROCK I (setting [2]), under 5.40.

With `Clc1cnc2[nH]ccc2c1Nc1cccc(-c2cnco2)c1` [compound 156], the pKi on JAK3 (setting [2]) is over 6.30; on JAK2 (setting [2]) it was over 6.30; at ROCK I (setting [2]) it was under 5.40.

For `Clc1cnc2[nH]ccc2c1NC1CCCN(Cc2ccccc2)C1` (stereo not drawn) [compound 157], the pKi on JAK3 (setting [2]), at JAK2 (setting [2]) and at ROCK I (setting [2]) was over 6.30 each time.

Consider `Clc1ccccc1Nc1c(Cl)cnc2[nH]ccc12` [compound 158], for which the pKi at JAK3 (setting [2]) is over 6.30; at JAK2 (setting [2]), over 6.30; at ROCK I (setting [2]), 5.30 to 6.30.

`N#Cc1ccc(Cl)cc1Nc1c(Cl)cnc2[nH]ccc12` [compound 159]: the pKi at JAK3 (setting [2]) was over 6.30; at JAK2 (setting [2]) it was over 6.30; on ROCK I (setting [2]), under 5.40.

Consider `Cc1ccc(C(N)=O)cc1Nc1c(Cl)cnc2[nH]ccc12` [compound 160], for which the values for the negative logarithm of the Ki (pKi) on JAK3 (setting [2]), at JAK2 (setting [2]) and at ROCK I (setting [2]) were 5.30 to 6.30, 5.30 to 6.30 and under 5.40, respectively.

Regarding `CC1CCCC(Nc2c(Cl)cnc3[nH]ccc23)C1` (stereo not drawn) [compound 161], the pKi on JAK3 (setting [2]), at JAK2 (setting [2]) and at ROCK I (setting [2]) was over 6.30 each time.

On to `CC1CC(Nc2c(Cl)cnc3[nH]ccc23)CC(C)(C)C1` (stereo not drawn) [compound 162], for which the pKi was over 6.30 on JAK3 (setting [2]), over 6.30 on JAK2 (setting [2]) and 5.30 to 6.30 at ROCK I (setting [2]).

Values taken from patent US8921376B2, “Pyrrolopyridines useful as inhibitors of protein kinase” (Vertex Pharmaceuticals Incorporated, priority 2005, dated 2014).
